Where two headings read alike, the source gives them in different places.

This assay deals with M. mycetomatis genome strain MM55. Description: CLSI M38-A2 based in vitro susceptibility screening (XTT or resazurin), growth at fixed concentration. The format is cell-based, Madurella mycetomatis. The settings on record: Madurella mycetomatis. (Tetrazolium assays rely on reduction of a dye to a coloured formazan, in cell work by metabolically active cells.)
Where [1] appears, read: 25 uM, mean of replicates, read-out: Percentage survival at 25um, 25 uM mean.
[2] abbreviates: 25 uM, replicate A, read-out: Percentage survival at 25um, 25 um A.
[3] abbreviates: 25 uM, replicate B, read-out: Percentage survival at 25um, 25 uM B.
Setting [4] is: 25 uM, replicate C, read-out: Percentage survival at 25um, 25 uM C.
Setting [5] is: mean of replicates, read-out: Percentage survival at 100um, 100 uM mean.
Setting [6] is: replicate 1, read-out: Percentage survival at 100um, 100 uM A.
[7] abbreviates: replicate 2, read-out: Percentage survival at 100um, 100 uM A.
Where [8] appears, read: replicate 3, read-out: Percentage survival at 100um, 100 uM A.
The mark [9] stands for this setting: 25 uM, mean of three replicates, read-out: Percentage survival at 25um, 25 uM mean.
Where [10] appears, read: mean of three replicates, read-out: Percentage survival at 100um, 100 uM mean.
Setting [11] is: replicate 1, read-out: Percentage survival at 100um, 100 uM A (first replicate column).
Setting [12] is: replicate 2, read-out: Percentage survival at 100um, 100 uM A (second replicate column).
The mark [13] stands for this setting: replicate 3, read-out: Percentage survival at 100um, 100 uM A (third replicate column).
Where [14] appears, read: first replicate column, read-out: Percentage survival at 100um, 100 uM A.
[15] abbreviates: second replicate column, read-out: Percentage survival at 100um, 100 uM A.
The mark [16] stands for this setting: third replicate column, read-out: Percentage survival at 100um, 100 uM A.
Setting [17] is: 25 uM, mean, read-out: Percentage survival at 25um, 25 uM mean.
Where [18] appears, read: mean, read-out: Percentage survival at 100um, 100 uM mean.
Setting [19] is: replicate (first column), read-out: Percentage survival at 100um, 100 uM A.
The mark [20] stands for this setting: replicate (second column), read-out: Percentage survival at 100um, 100 uM A.
Setting [21] is: replicate (third column), read-out: Percentage survival at 100um, 100 uM A.
Where [22] appears, read: 25 uM, mean of replicates, MM55, read-out: Percentage survival at 25um, 25 uM mean.
The mark [23] stands for this setting: 25 uM, replicate A, MM55, read-out: Percentage survival at 25um, 25 um A.
Where [24] appears, read: 25 uM, replicate B, MM55, read-out: Percentage survival at 25um, 25 uM B.
Setting [25] is: 25 uM, replicate C, MM55, read-out: Percentage survival at 25um, 25 uM C.
Setting [26] is: mean of replicates, MM55, read-out: Percentage survival at 100um, 100 uM mean.
The mark [27] stands for this setting: replicate 1, MM55, read-out: Percentage survival at 100um, 100 uM A.
Setting [28] is: replicate 2, MM55, read-out: Percentage survival at 100um, 100 uM A.
The mark [29] stands for this setting: replicate 3, MM55, read-out: Percentage survival at 100um, 100 uM A.

With `Fc1ccc2c(/C=C/c3nnn[nH]3)c[nH]c2c1` [MMV1578563], the activity at 25 µM is, setting by setting: under setting [1], 87.2%; under setting [2], 86.3%; under setting [3], 93.6%; under setting [4], 81.6%. Further, the activity at 100 µM is 98.8% under setting [5], 96% under setting [6], 91.8% under setting [7] and 109% under setting [8].

As to `Cc1onc(-c2ccccc2)c1-c1ccc(S(N)(=O)=O)cc1` [MMV002260], the activity at 25 µM under setting [9] was found to be 81.4%, the activity at 25 µM under setting [2] was 85.1%, the activity at 25 µM under setting [3] was found to be 77.3% and the activity at 25 µM under setting [4] was found to be 81.8%. Further, the activity at 100 µM is 99.5% under setting [10], 101% under setting [11] and 76.9% under setting [13]. The Percent fungal survival at 100 µM under setting [12] was found to be 120%.

On to `Cc1nc2ccc(Cl)cc2c(-c2ccccc2)c1CC(=O)O` [MMV1580801], for which the activity at 25 µM reads like this: under setting [9], 86.1%; under setting [2], 87.4%; under setting [3], 94.3%; under setting [4], 76.7%. Further, the activity at 100 µM runs as follows: under setting [14], 85.8%; under setting [10], 83.4%; under setting [15], 76.8%; under setting [16], 87.5%.

Turning to `C[C@H]1CC[C@]2(NC1)O[C@H]1C[C@H]3[C@@H]4CC[C@H]5C[C@@H](O)CC[C@]5(C)[C@H]4CC[C@]3(C)[C@H]1[C@@H]2C` [MMV003069], the activity at 25 µM under setting [2] amounted to 98.3%; the activity at 25 µM (read-out: Percentage survival at 25um, 25 uM B) was 98.8%; the activity at 25 µM (read-out: Percentage survival at 25um, 25 uM C) was 91.1%; the activity at 25 µM (read-out: Percentage survival at 25um, 25 uM mean) turned out to be 96.1%. Further, the activity at 100 µM under setting [5] came out at 85.8%, the activity at 100 µM under setting [11] turned out to be 80.2%, the activity at 100 µM under setting [12] was 92.8% and the activity at 100 µM under setting [13] was determined as 84.2%.

Turning to `CC(C)(C)c1cccc(-c2nc3cc(C(=N)N)ccc3[nH]2)c1O` [MMV1581548], the activity at 25 µM under setting [17] came out at 20.7%, the activity at 25 µM under setting [2] worked out at 56.8%, the activity at 25 µM under setting [3] was found to be 2.31% and the activity at 25 µM under setting [4] turned out to be 2.96%. Further, the activity at 100 µM reads like this: under setting [18], 3.06%; under setting [19], -0.0188%; under setting [20], 5.51%; under setting [21], 3.71%.

Consider `O=C1[C@H](CC[C@H](O)c2ccc(F)cc2)[C@@H](c2ccc(O)cc2)N1c1ccc(F)cc1` [MMV1581377], for which the activity at 25 µM stood at 91.9% under setting [9], 82.7% under setting [2], 93.7% under setting [3] and 99.2% under setting [4]. For the same compound, the activity at 100 µM under setting [14] was -3.71%, the activity at 100 µM under setting [10] came out at 43.8%, the activity at 100 µM under setting [15] was 57.6% and the activity at 100 µM under setting [16] was 77.4%.

As to `O=C(Nc1nnc(-c2ccc(Cl)cc2)o1)c1nc2ccccc2s1` [MMV102833], the activity at 25 µM amounted to 111% under setting [9], 134% under setting [2], 137% under setting [3] and 62.9% under setting [4]. In addition, the activity at 100 µM under setting [10] came out at 73.2%, the activity at 100 µM under setting [11] was 81.5% and the activity at 100 µM under setting [13] came to 71.7%. Also, under setting [12], the Percent fungal survival at 100 µM is 66.4%.

For the compound `COc1cc(C2C3=C(CC(C)(C)CC3=O)Nc3ccccc3N2C(C)=O)ccc1OCc1ccccc1` (stereo not shown) [MMV1634557], the activity at 25 µM under setting [17] was 82.1%, the activity at 25 µM under setting [2] stood at 90.5%, the activity at 25 µM under setting [3] is 79.1% and the activity at 25 µM under setting [4] turned out to be 76.6%. Also, the activity at 100 µM is, setting by setting: under setting [18], 85.5%; under setting [19], 92.5%; under setting [20], 79.5%; under setting [21], 84.5%.

Turning to `COc1ccc2sc3c(c2c1)NC(C)CNC3=O` (stereo not shown) [MMV1782115], the activity at 25 µM amounted to 53.1% under setting [9], 57.6% under setting [2], 74.6% under setting [3] and 27.1% under setting [4]. For the same compound, the activity at 100 µM by setting is: under setting [10], -0.834%; under setting [11], -3.17%; under setting [13], 1.07%. The Percent fungal survival at 100 µM under setting [12] was -0.401%.

For `CCCC1(C2CC2)c2cc(Cl)ccc2NC(=O)N1C` (stereo not shown) [MMV1782113], the activity at 25 µM is 68.5% under setting [22], 67.5% under setting [23], 76.8% under setting [24] and 61.2% under setting [25]. Also, the activity at 100 µM was 56.1% under setting [26], 52.9% under setting [27], 56.4% under setting [28] and 58.9% under setting [29].

Consider `Cc1cc(CCCOc2c(C)cc(-c3noc(C(F)(F)F)n3)cc2C)on1` [MMV690467], for which the activity at 25 µM is, setting by setting: under setting [22], 115%; under setting [23], 152%; under setting [24], 84.5%; under setting [25], 108%. In addition, the activity at 100 µM by setting is: under setting [26], 79.3%; under setting [27], 70.9%; under setting [28], 103%; under setting [29], 64.3%.

As to `CC(C)N(c1cc(-c2ccccc2)sc1C(=O)O)C(=O)[C@H]1CC[C@H](C)CC1` [MMV1634388], the activity at 25 µM reads like this: under setting [9], 90%; under setting [2], 89.7%; under setting [3], 99.2%; under setting [4], 81.2%. Further, the activity at 100 µM was found to be 83.3% under setting [14], 76.1% under setting [10], 68.1% under setting [15] and 77% under setting [16].

As for `CCc1ccccc1OCCN1CCCCCC1` [MMV1633962], the activity at 25 µM reads like this: under setting [9], 60.1%; under setting [2], 47.9%; under setting [3], 69.8%; under setting [4], 62.5%. Also, the activity at 100 µM stood at 61.1% under setting [14], 61.5% under setting [10], 62.7% under setting [15] and 60.6% under setting [16].

Consider `CC(C)C(=O)N[C@H]1[C@H]([C@H](O)[C@H](O)CO)OC(C(=O)O)=C[C@@H]1N=[N+]=[N-]` [MMV1782111], for which the activity at 25 µM reads like this: under setting [22], 95.4%; under setting [23], 71.1%; under setting [24], 133%; under setting [25], 82.3%. In addition, the activity at 100 µM runs as follows: under setting [26], 57.6%; under setting [27], 71%; under setting [28], 27.4%; under setting [29], 74.4%.

Turning to `COc1ccc(NS(=O)(=O)c2ccc(Cl)s2)cn1` [MMV1580499], the activity at 25 µM was determined as 85% under setting [9], 77.6% under setting [2], 91.2% under setting [3] and 86.3% under setting [4]. Moreover, the activity at 100 µM was 64.6% under setting [14], 61.8% under setting [10], 69.9% under setting [15] and 50.9% under setting [16].

With `CC[C@@H](CO)NCCN[C@@H](CC)CO` [MMV687801], the activity at 25 µM reads like this: under setting [1], 87.9%; under setting [2], 86.9%; under setting [3], 87.9%; under setting [4], 88.8%. Further, the activity at 100 µM came out at 85.7% under setting [5], 96.9% under setting [6], 79.4% under setting [7] and 80.8% under setting [8].

For `Nc1cc(-c2nc3ccccc3[nH]2)n[nH]c1=O` [MMV975972], the activity at 25 µM is 97% under setting [9], 99% under setting [2], 101% under setting [3] and 90.7% under setting [4]. For the same compound, the activity at 100 µM reads like this: under setting [10], 95.6%; under setting [11], 105%; under setting [13], 91.4%. The Percent fungal survival at 100 µM under setting [12] is 90.7%.

Source of the values: article PMC8815882, “Screening the pandemic response box identified benzimidazole carbamates, Olorofim and ravuconazole as promising drug candidates for the treatment of eumycetoma” (PLoS Neglected Tropical Diseases, 2022).
